{"source": "PubChem BioAssay (NCI)", "test_in_all_cases": "growth of human tumour cells (NCI), 48 h", "key": {"786-0 renal": {"test_system": "786-0 renal"}, "A498 renal": {"test_system": "A498 renal"}, "A549 NSCLC": {"test_system": "A549 NSCLC"}, "ACHN renal": {"test_system": "ACHN renal"}, "BT-549 breast": {"test_system": "BT-549 breast"}, "CAKI-1 renal": {"test_system": "CAKI-1 renal"}, "CCRF-CEM leukemia": {"test_system": "CCRF-CEM leukemia"}, "COLO 205 colon": {"test_system": "COLO 205 colon"}, "DU-145 prostate": {"test_system": "DU-145 prostate"}, "EKVX NSCLC": {"test_system": "EKVX NSCLC"}, "HCC-2998 colon": {"test_system": "HCC-2998 colon"}, "HCT-116 colon": {"test_system": "HCT-116 colon"}, "HCT-15 colon": {"test_system": "HCT-15 colon"}, "HL-60(TB) leukemia": {"test_system": "HL-60(TB) leukemia"}, "HOP-62 NSCLC": {"test_system": "HOP-62 NSCLC"}, "HOP-92 NSCLC": {"test_system": "HOP-92 NSCLC"}, "HT29 colon": {"test_system": "HT29 colon"}, "IGROV1 ovarian": {"test_system": "IGROV1 ovarian"}, "K-562 leukemia": {"test_system": "K-562 leukemia"}, "KM12 colon": {"test_system": "KM12 colon"}, "LOX IMVI melanoma": {"test_system": "LOX IMVI melanoma"}, "M14 melanoma": {"test_system": "M14 melanoma"}, "MALME-3M melanoma": {"test_system": "MALME-3M melanoma"}, "MCF7 breast": {"test_system": "MCF7 breast"}, "MDA-MB-231 breast": {"test_system": "MDA-MB-231 breast"}, "MDA-MB-435": {"test_system": "MDA-MB-435"}, "MDA-N": {"test_system": "MDA-N"}, "MOLT-4 leukemia": {"test_system": "MOLT-4 leukemia"}, "NCI-H226 lung": {"test_system": "NCI-H226 lung"}, "NCI-H23 lung": {"test_system": "NCI-H23 lung"}, "NCI-H460 lung": {"test_system": "NCI-H460 lung"}, "NCI/ADR-RES ovarian": {"test_system": "NCI/ADR-RES ovarian"}, "OVCAR-3 ovarian": {"test_system": "OVCAR-3 ovarian"}, "OVCAR-4 ovarian": {"test_system": "OVCAR-4 ovarian"}, "OVCAR-5 ovarian": {"test_system": "OVCAR-5 ovarian"}, "OVCAR-8 ovarian": {"test_system": "OVCAR-8 ovarian"}, "PC-3 prostate": {"test_system": "PC-3 prostate"}, "RXF 393 renal": {"test_system": "RXF 393 renal"}, "SF-295 CNS": {"test_system": "SF-295 CNS"}, "SK-MEL-2 melanoma": {"test_system": "SK-MEL-2 melanoma"}, "SK-MEL-28 melanoma": {"test_system": "SK-MEL-28 melanoma"}, "SK-MEL-5 melanoma": {"test_system": "SK-MEL-5 melanoma"}, "SK-OV-3 ovarian": {"test_system": "SK-OV-3 ovarian"}, "SNB-19 CNS": {"test_system": "SNB-19 CNS"}, "SNB-75 CNS": {"test_system": "SNB-75 CNS"}, "SW-620 colon": {"test_system": "SW-620 colon"}, "T-47D breast": {"test_system": "T-47D breast"}, "TK-10 renal": {"test_system": "TK-10 renal"}, "U251 CNS": {"test_system": "U251 CNS"}, "UACC-257 melanoma": {"test_system": "UACC-257 melanoma"}, "UACC-62 melanoma": {"test_system": "UACC-62 melanoma"}, "UO-31 renal": {"test_system": "UO-31 renal"}}, "note": "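Grown in 96-well plates, cells were treated for 48 hours with each compound at five concentrations. Insufficient inhibition: endpoint recorded as highest concentration tested. At the TGI there is no net growth.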"}
{"molecule": "COc1ccc(Cc2nc3cc([N+](=O)[O-])ccc3n2C[C@@H]2CCCN3CCCCC23)cc1", "note": "(some centres not stated)", "values": [{"measurement": "TGI", "setting": "786-0 renal", "value": 40, "unit": "µM"}, {"measurement": "TGI", "setting": "A498 renal", "value": 35.2, "unit": "µM"}, {"measurement": "TGI", "setting": "A549 NSCLC", "value": 35, "unit": "µM"}, {"measurement": "TGI", "setting": "ACHN renal", "value": "> 100", "unit": "µM"}, {"measurement": "TGI", "setting": "BT-549 breast", "value": 37.5, "unit": "µM"}, {"measurement": "TGI", "setting": "CAKI-1 renal", "value": 45.3, "unit": "µM"}, {"measurement": "TGI", "setting": "CCRF-CEM leukemia", "value": 29.2, "unit": "µM"}, {"measurement": "TGI", "setting": "COLO 205 colon", "value": 27, "unit": "µM"}, {"measurement": "TGI", "setting": "DU-145 prostate", "value": "> 100", "unit": "µM"}, {"measurement": "TGI", "setting": "EKVX NSCLC", "value": 76.5, "unit": "µM"}, {"measurement": "TGI", "setting": "HCC-2998 colon", "value": 34.1, "unit": "µM"}, {"measurement": "TGI", "setting": "HCT-116 colon", "value": 38.2, "unit": "µM"}, {"measurement": "TGI", "setting": "HCT-15 colon", "value": 56.5, "unit": "µM"}, {"measurement": "TGI", "setting": "HL-60(TB) leukemia", "value": 19, "unit": "µM"}, {"measurement": "TGI", "setting": "HOP-62 NSCLC", "value": 43.6, "unit": "µM"}, {"measurement": "TGI", "setting": "HOP-92 NSCLC", "value": 76.8, "unit": "µM"}, {"measurement": "TGI", "setting": "HT29 colon", "value": 38.4, "unit": "µM"}, {"measurement": "TGI", "setting": "IGROV1 ovarian", "value": 48.1, "unit": "µM"}, {"measurement": "TGI", "setting": "K-562 leukemia", "value": 57.6, "unit": "µM"}, {"measurement": "TGI", "setting": "KM12 colon", "value": 29.8, "unit": "µM"}, {"measurement": "TGI", "setting": "LOX IMVI melanoma", "value": 36.4, "unit": "µM"}, {"measurement": "TGI", "setting": "M14 melanoma", "value": 27.2, "unit": "µM"}, {"measurement": "TGI", "setting": "MALME-3M melanoma", "value": 32.1, "unit": "µM"}, {"measurement": "TGI", "setting": "MCF7 breast", "value": "> 100", "unit": "µM"}, {"measurement": "TGI", "setting": "MDA-MB-231 breast", "value": 43, "unit": "µM"}, {"measurement": "TGI", "setting": "MDA-MB-435", "value": 38.1, "unit": "µM"}, {"measurement": "TGI", "setting": "MDA-N", "value": 33.8, "unit": "µM"}, {"measurement": "TGI", "setting": "MOLT-4 leukemia", "value": 60.1, "unit": "µM"}, {"measurement": "TGI", "setting": "NCI-H226 lung", "value": "> 100", "unit": "µM"}, {"measurement": "TGI", "setting": "NCI-H23 lung", "value": 87.2, "unit": "µM"}, {"measurement": "TGI", "setting": "NCI-H460 lung", "value": "> 100", "unit": "µM"}, {"measurement": "TGI", "setting": "NCI/ADR-RES ovarian", "value": 60.6, "unit": "µM"}, {"measurement": "TGI", "setting": "OVCAR-3 ovarian", "value": 41.1, "unit": "µM"}, {"measurement": "TGI", "setting": "OVCAR-4 ovarian", "value": 61.3, "unit": "µM"}, {"measurement": "TGI", "setting": "OVCAR-5 ovarian", "value": 82, "unit": "µM"}, {"measurement": "TGI", "setting": "OVCAR-8 ovarian", "value": "> 100", "unit": "µM"}, {"measurement": "TGI", "setting": "PC-3 prostate", "value": "> 100", "unit": "µM"}, {"measurement": "TGI", "setting": "RXF 393 renal", "value": 39.8, "unit": "µM"}, {"measurement": "TGI", "setting": "SF-295 CNS", "value": 35.8, "unit": "µM"}, {"measurement": "TGI", "setting": "SK-MEL-2 melanoma", "value": 33.2, "unit": "µM"}, {"measurement": "TGI", "setting": "SK-MEL-28 melanoma", "value": 35.1, "unit": "µM"}, {"measurement": "TGI", "setting": "SK-MEL-5 melanoma", "value": 27.9, "unit": "µM"}, {"measurement": "TGI", "setting": "SK-OV-3 ovarian", "value": 46.4, "unit": "µM"}, {"measurement": "TGI", "setting": "SNB-19 CNS", "value": 84.8, "unit": "µM"}, {"measurement": "TGI", "setting": "SNB-75 CNS", "value": "> 100", "unit": "µM"}, {"measurement": "TGI", "setting": "SW-620 colon", "value": 81.8, "unit": "µM"}, {"measurement": "TGI", "setting": "T-47D breast", "value": "> 100", "unit": "µM"}, {"measurement": "TGI", "setting": "TK-10 renal", "value": 92.8, "unit": "µM"}, {"measurement": "TGI", "setting": "U251 CNS", "value": 50.6, "unit": "µM"}, {"measurement": "TGI", "setting": "UACC-257 melanoma", "value": 31.5, "unit": "µM"}, {"measurement": "TGI", "setting": "UACC-62 melanoma", "value": 31.3, "unit": "µM"}, {"measurement": "TGI", "setting": "UO-31 renal", "value": 21.1, "unit": "µM"}]}
